Results from patent US9686994B2, “Use of ALS inhibitor herbicides for control of unwanted vegetation in ALS inhibitor herbicide tolerant beta vulgaris plants” (BAYER CROPSCIENCE AG, priority 2012, dated 2017).
“Also recorded” adds a separate entry of the source.

How the values were obtained:
[1] = system: mutated sugar beet plants comprising SEQ.ID.NO:3 and SEQ.ID.NO:5 (on two different alleles), Line A; test: Greenhouse trial: ALS inhibitor treatment of sugar beets in direct comparison, Line A; type: in vivo, Beta vulgaris L. ssp. vulgaris; settings: day 14 after application at BBCH 14; scale 0% no damage to 100% completely killed; g/ha: foramsulfuron 13, iodosulfuron-methyl-Na 3.5, amidosulfuron 15, thiencarbazone-methyl 7.5, Bisbyribac-Na 50, metosulam 15
Description: (§1) Mutated sugar beet plants comprising SEQ.ID.NO:3 and SEQ.ID.NO:5 (on two different alleles) for use in the context of the present invention (as described in Example 4 above, “Line A”) were treated with different ALS inhibitors in direct comparison with sugar beet plants where the tryptophan at position 569 of the encoded ALS enzyme is substituted by a leucine (“Line B”), with sugar beet plants described in WO 98/02527 where the proline at position 188 of the encoded ALS enzyme is substituted by a serine (“Line C”), and a traditional variety (wild-type) sugar beet plant not having a mutation at positions 569 and 188 (“Line WT”).
(§2) Several groups of seeds of the four different mentioned sugar beet plants were sown separately in the greenhouse and grew up to stage BBCH 14 for Beta vulgaris L. ssp. vulgaris (i.e. 4 leaves (the second pair) unfolded) according to the BBCH monograph “Growth stages of mono- and dicotyledonous plants”, 2nd edition, 2001, ed. Uwe Meier, Federal Biological Research Centre for Agriculture and Forestry (Biologische Bundesanstalt für Land and Forstwirtschaft). Subsequently, the resulting separate groups of sugar beet plants were each individually treated with an ALS inhibitor (ALS-in) in the amounts (g/ha) indicated in Table 1.
(§3) On day 14 after application of the respective ALS inhibitor, the damage (i.e. the phytotoxicity) for each group of sugar beet plants was rated on a stratified scale from 0% (i.e. no damage, no phytotoxicity) to 100% (i.e. the plants were completely killed).

[2] = system: sugar beet plants where the tryptophan at position 569 of the encoded ALS enzyme is substituted by a leucine, Line B; test: Greenhouse trial: ALS inhibitor treatment of sugar beets in direct comparison, Line B; type: in vivo, Beta vulgaris L. ssp. vulgaris; settings: day 14 after application at BBCH 14; scale 0% no damage to 100% completely killed; g/ha: foramsulfuron 13, iodosulfuron-methyl-Na 3.5, amidosulfuron 15, thiencarbazone-methyl 7.5, Bisbyribac-Na 50, metosulam 15
Description: as §1, §2, §3

[3] = system: sugar beet plants where the proline at position 188 of the encoded ALS enzyme is substituted by a serine, Line C; test: Greenhouse trial: ALS inhibitor treatment of sugar beets in direct comparison, Line C; type: in vivo, Beta vulgaris L. ssp. vulgaris; settings: day 14 after application at BBCH 14; scale 0% no damage to 100% completely killed; g/ha: foramsulfuron 13, iodosulfuron-methyl-Na 3.5, amidosulfuron 15, thiencarbazone-methyl 7.5, Bisbyribac-Na 50, metosulam 15
Description: as §1, §2, §3

[4] = system: traditional variety (wild-type) sugar beet plant not having a mutation at positions 569 and 188, Line WT; test: Greenhouse trial: ALS inhibitor treatment of sugar beets in direct comparison, Line WT; type: in vivo, Beta vulgaris L. ssp. vulgaris; settings: day 14 after application at BBCH 14; scale 0% no damage to 100% completely killed; g/ha: foramsulfuron 13, iodosulfuron-methyl-Na 3.5, amidosulfuron 15, thiencarbazone-methyl 7.5, Bisbyribac-Na 50, metosulam 15
Description: as §1, §2, §3

[5] = system: regenerated sugar beet plants having the mutated SEQ.ID.NO:3 (heterozygote for this mutation); test: Example 3: ALS inhibitor treatment of sugar beets, heterozygote mutant; type: in vivo; settings: for resistance of the (heterozygote) mutated plants to the herbicide: foramsulfuron 12.5 g/ha, amidosulfuron 15 g/ha, iodosulfuron 3.5 g/ha, thiencarbazone-methyl 7.5 g/ha, up to 3 applications
From the text: (§4) The behaviour of regenerated sugar beet plants having the mutated SEQ.ID.NO:3 (heterozygote for this mutation) and a wild-type sugar beet commercial variety was compared.

[6] = system: wild-type sugar beet commercial variety; test: Example 3: ALS inhibitor treatment of sugar beets, wild type; type: in vivo; settings: foramsulfuron 12.5 g/ha, amidosulfuron 15 g/ha, iodosulfuron 3.5 g/ha, thiencarbazone-methyl 7.5 g/ha; with or without rapeseed oil methyl ester
From the text: as §4

[7] = system: dual mutant sugar beet plant comprising SEQ.ID.NO:3 and SEQ.ID.NO:5 (NCIMB 42050); test: Example 4: ALS inhibitor treatment of sugar beets having further mutations in the ALS gene; type: in vivo; settings: compared with the single mutant (position 569); even when put in composition with organic compounds
From the text: Subsequently, a mutated sugar beet plant was developed comprising SEQ.ID.NO:3 and SEQ.ID.NO:5 (on two different alleles). Such resulting dual mutant has been deposited under the Budapest Treaty under NCIMB 42050. A plant comprising both SEQ.ID.NO:3 and SEQ.ID.NO:5 can be generated by relying on several techniques, including, for instance, a subsequent mutagenesis step applied to the single mutant NCIMB 42051.
Then the resistance of this dual mutant plant (a mutation in one allele at amino acid 569 and a mutation in the other allele at amino acid 188) was compared with the single mutant (a mutation at position 569) sugar beet.

| Compound | damage (phytotoxicity), average rating, Line A [1] [%] | damage (phytotoxicity), average rating, Line B [2] [%] | damage (phytotoxicity), average rating, Line C [3] [%] | damage (phytotoxicity), average rating, Line WT [4] [%] | resistance of the (heterozygote) mutated plants to the herbicide [5] | sensitivity of the wild-type plant to the herbicide [6] | resistance of the dual mutant plant to the herbicide [7] | resistance of the (heterozygote) mutated plants, herbicide applied together with the organic compound ([5]; iodosulfuron 3.5 g/ha with 25 g/ha rapeseed oil methyl ester) |
| --- | --- | --- | --- | --- | --- | --- | --- | --- |
| COc1cc(OC)nc(NC(=O)NS(=O)(=O)N(C)S(C)(=O)=O)n1 [Amidosulfuron, amidosulfuron] | 6.3 | 37.5 | 51.9 | 73.1 | same level of resistance | very sensitive | good resistance |  |
| COc1cc(OC)nc(Oc2cccc(Oc3nc(OC)cc(OC)n3)c2C(=O)O)n1 [Bisbyribac-Na, bispyribac-sodium] | 17.5 | 38.1 | 71.7 | 80.0 |  |  |  |  |
| COc1cc(OC)nc(NC(=O)NS(=O)(=O)c2cc(NC=O)ccc2C(=O)N(C)C)n1 [Foramsulfuron, foramsulfuron] | 26.9 | 45.6 | 77.5 | 80.0 | good resistance; also recorded: best resistance | very sensitive |  |  |
| COC(=O)c1ccc(I)cc1S(=O)(=O)[N-]C(=O)Nc1nc(C)nc(OC)n1.[Na+] [Iodosulfuron-methyl-Na, iodosulfuron-methyl-sodium] | 22.5 | 38.8 | 80.0 | 82.5 |  |  |  |  |
| COc1cc(OC)n2nc(S(=O)(=O)Nc3c(Cl)ccc(C)c3Cl)nc2n1 [Metosulam, metosulam] | 13.1 | 40.6 | 69.4 | 79.4 |  |  |  |  |
| COC(=O)c1csc(C)c1S(=O)(=O)NC(=O)n1nc(OC)n(C)c1=O [Thiencarbazone-methyl, thiencarbazone-methyl] | 8.1 | 35.6 | 37.5 | 84.4 | about the same level of resistance as for iodosulfuron | very sensitive | good resistance |  |
| COc1nc(C)nc(NC(=O)NS(=O)(=O)c2cc(I)ccc2C(=O)O)n1 [iodosulfuron] |  |  |  |  | good level of resistance | very sensitive |  | resistance declined |
